ChEMBL document CHEMBL1201862, “PubChem BioAssay data set” (2004)
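A five-concentration, 48-hour dose response in 96-well plates underlies each endpoint, interpolated linearly between surrounding concentrations. GI50 is the concentration that inhibits growth by half.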 The source made the active and inactive calls. No stated cut-off is given here; in the data, active = GI50 up to about 1.1 µM and inactive = higher.

Columns and labels:
Assay in all cases: NCI tumour cell line growth inhibition, 48 h
MDA-MB-231 = system: MDA-MB-231
K562 = system: K562
HOP-62 = system: HOP-62
TK-10 = system: TK-10
MCF7 = system: MCF7
IGROV-1 = system: IGROV-1
SN12C = system: SN12C
HCC 2998 = system: HCC 2998
M14 = system: M14
SW-620 = system: SW-620
LOX IMVI = system: LOX IMVI
HOP-92 = system: HOP-92
OVCAR-4 = system: OVCAR-4
SF-539 = system: SF-539
UACC-62 = system: UACC-62
786-0 = system: 786-0
HCT-15 = system: HCT-15
DMS-114 = system: DMS-114
KM-20L2 = system: KM-20L2
HOP-18 = system: HOP-18

Row | SMILES | GI50 (MDA-MB-231) | GI50 (K562) | GI50 (HOP-62) | GI50 (TK-10) | GI50 (MCF7) | GI50 (IGROV-1) | GI50 (SN12C) | GI50 (HCC 2998) | GI50 (M14) | GI50 (SW-620) | GI50 (LOX IMVI) | GI50 (HOP-92) | GI50 (OVCAR-4) | GI50 (SF-539) | GI50 (UACC-62) | GI50 (786-0) | GI50 (HCT-15) [µM] | GI50 (DMS-114) | GI50 (KM-20L2) | GI50 (HOP-18)
1 | C=CCn1c(=O)ccn(COCCO)c1=O | > 100 µM (inactive) | > 100 µM (inactive) | > 100 µM (inactive) | > 100 µM (inactive) | > 100 µM (inactive) | > 100 µM (inactive) | > 100 µM (inactive) | > 100 µM (inactive) | > 100 µM (inactive) | > 100 µM (inactive) | > 100 µM (inactive) | > 100 µM (inactive) | > 100 µM (inactive) | > 100 µM (inactive) |  |  |  |  |  | 
2 | CCOC(=O)c1cc2c([N+](=O)[O-])c(NC(C)=O)ccc2s1 | 24.1 µM (inactive) | 53.6 µM (inactive) | 90.2 µM (inactive) | > 100 µM (inactive) | 63 µM (inactive) | 72.9 µM (inactive) | 92 µM (inactive) | > 100 µM (inactive) | > 100 µM (inactive) | > 100 µM (inactive) | 60.4 µM (inactive) | 44.8 µM (inactive) | 68.4 µM (inactive) | > 100 µM (inactive) | 66.7 µM (inactive) | 62.8 µM (inactive) | 86.9 |  |  | 
3 | CSCCC(N)P(C)(=O)O (stereo unspecified) | > 100 µM (inactive) | > 100 µM (inactive) | > 100 µM (inactive) | > 100 µM (inactive) | > 100 µM (inactive) | > 100 µM (inactive) | > 100 µM (inactive) | > 100 µM (inactive) | > 100 µM (inactive) | > 100 µM (inactive) | > 100 µM (inactive) | > 100 µM (inactive) | > 100 µM (inactive) | > 100 µM (inactive) | > 100 µM (inactive) | > 100 µM (inactive) | > 100 |  |  | 
4 | O=C1/C(=C/c2ccccc2)NC(=S)N1CN1CCOCC1 | > 100 µM (inactive) | > 100 µM (inactive) | > 100 µM (inactive) | > 100 µM (inactive) | > 100 µM (inactive) | > 100 µM (inactive) | > 100 µM (inactive) |  | > 100 µM (inactive) | > 100 µM (inactive) | > 100 µM (inactive) | > 100 µM (inactive) | 72.8 µM (inactive) |  | > 100 µM (inactive) | > 100 µM (inactive) | > 100 |  |  | 
5 | O=[N+]([O-])C(/C=C(\Cl)[N+](=O)[O-])=C1Nc2ccccc2N1 | 36.7 µM (inactive) | 79.6 µM (inactive) | > 100 µM (inactive) | > 100 µM (inactive) | 39.6 µM (inactive) | 64.7 µM (inactive) | 39.7 µM (inactive) | > 100 µM (inactive) | 60.8 µM (inactive) | > 100 µM (inactive) | 34.8 µM (inactive) | 18.3 µM (inactive) | > 100 µM (inactive) | 35.5 µM (inactive) | 33.4 µM (inactive) | 52.4 µM (inactive) | 59.4 |  |  | 
6 | O=P(CCOc1ccccc1OCCP(=O)(c1ccccc1)c1ccc2c(c1)OCCOCCOCCOCCO2)(c1ccccc1)c1ccc2c(c1)OCCOCCOCCOCCO2 (stereo unspecified) |  | > 100 µM (inactive) | > 100 µM (inactive) | > 100 µM (inactive) |  | > 100 µM (inactive) | > 100 µM (inactive) | > 100 µM (inactive) | > 100 µM (inactive) | > 100 µM (inactive) | > 100 µM (inactive) | > 100 µM (inactive) | > 100 µM (inactive) | > 100 µM (inactive) | > 100 µM (inactive) | > 100 µM (inactive) | > 100 | > 100 µM (inactive) | > 100 µM (inactive) | 
7 | COC(=O)C(=O)C(C(C)=O)C(=O)C(=O)Nc1ccc(C)cc1C (stereo unspecified) |  | > 100 µM (inactive) | > 100 µM (inactive) | > 100 µM (inactive) |  | > 100 µM (inactive) | > 100 µM (inactive) | > 100 µM (inactive) | > 100 µM (inactive) | > 100 µM (inactive) | > 100 µM (inactive) | > 100 µM (inactive) | > 100 µM (inactive) | > 100 µM (inactive) | > 100 µM (inactive) |  | > 100 | > 100 µM (inactive) | > 100 µM (inactive) | 
8 | CC(C)(C)[Si](OC1CCOC1=O)(c1ccccc1)c1ccccc1 (stereo unspecified) |  |  |  | 22.5 µM (inactive) |  | 15.7 µM (inactive) | 17.1 µM (inactive) | 18.9 µM (inactive) | 18 µM (inactive) | 26.5 µM (inactive) | 15.5 µM (inactive) | > 10 µM (inactive) |  | 23.4 µM (inactive) | 13.9 µM (inactive) |  | 18.5 |  | 14.5 µM (inactive) | 18.9 µM (inactive)
9 | Cc1nc2cccc(F)c2c(=O)n1C1CCCCNC1=O (stereo unspecified) | > 10 µM (inactive) | > 10 µM (inactive) | > 10 µM (inactive) | > 10 µM (inactive) | > 10 µM (inactive) | > 10 µM (inactive) | > 10 µM (inactive) | > 10 µM (inactive) | > 10 µM (inactive) | > 10 µM (inactive) | > 10 µM (inactive) | > 10 µM (inactive) | > 10 µM (inactive) | > 10 µM (inactive) | > 10 µM (inactive) | > 10 µM (inactive) | > 10 |  |  | 
10 | NC(=S)N/N=C1\CC(c2ccccc2)Nc2ccccc21 (stereo unspecified) |  | 12.2 µM (inactive) |  | 71.8 µM (inactive) |  | 42.7 µM (inactive) | 48.1 µM (inactive) |  | 42.1 µM (inactive) | 30.7 µM (inactive) | 34.2 µM (inactive) | 16.4 µM (inactive) |  | 41.7 µM (inactive) | 34.3 µM (inactive) |  | 28.6 | 23.4 µM (inactive) | 18.5 µM (inactive) | 54.6 µM (inactive)
11 | CCOP(=Nc1ccc(N(C)C)cc1)(OCC)OCC | > 100 µM (inactive) | > 100 µM (inactive) | > 100 µM (inactive) | > 100 µM (inactive) | > 100 µM (inactive) | > 100 µM (inactive) |  | > 100 µM (inactive) | > 100 µM (inactive) |  |  | > 100 µM (inactive) | > 100 µM (inactive) |  | > 100 µM (inactive) |  | > 100 |  |  | 
12 | COc1c(Cl)cc(Cl)cc1S(=O)O |  | > 100 µM (inactive) | > 100 µM (inactive) | > 100 µM (inactive) |  |  | > 100 µM (inactive) | > 100 µM (inactive) | > 100 µM (inactive) |  | > 100 µM (inactive) |  | > 100 µM (inactive) | > 100 µM (inactive) | > 100 µM (inactive) |  |  | > 100 µM (inactive) |  | 
13 | CON(C)C(=O)C(Cc1ccccc1)NC(=O)OCc1ccccc1 (stereo unspecified) |  | 77.1 µM (inactive) | > 100 µM (inactive) | > 100 µM (inactive) |  | > 100 µM (inactive) | > 100 µM (inactive) | > 100 µM (inactive) | > 100 µM (inactive) | > 100 µM (inactive) |  | > 100 µM (inactive) | > 100 µM (inactive) | > 100 µM (inactive) | > 100 µM (inactive) |  | > 100 | 58.9 µM (inactive) | > 100 µM (inactive) | 
14 | Cc1cccc(/C=C2\CCCc3ccccc3C2=O)c1 | 18.5 µM (inactive) | 18 µM (inactive) | 28.8 µM (inactive) | 27.4 µM (inactive) | 16.9 µM (inactive) | 21.6 µM (inactive) | 17.9 µM (inactive) |  | 17.9 µM (inactive) | 16.8 µM (inactive) | 19.3 µM (inactive) | 15 µM (inactive) | 19.1 µM (inactive) | 18.7 µM (inactive) | 14 µM (inactive) | 32.1 µM (inactive) | 18.7 |  |  | 
